Read-outs that look alike come from different tables or passages of the source. Each block holds one compound with its values, some of them ahead of it.
Key:
[1] = system: uterus, ovariectomized rats; assay: Uterine weight in ovariectomized rats (4 days daily oral dosing); assay type: in vivo, rat (female Sprague Dawley); conditions: Rattus norvegicus, 96 h, read-out: Uterine weight (% increase vs. OVX); for change in vivo at 0.1 mg/kg: 0.1 mg/kg PO; for change in vivo at 1 mg/kg: 1.0 mg/kg PO; for change in vivo at 10 mg/kg: 10.0 mg/kg PO
Method: (§1) In the examples illustrating the methods, a postmenopausal model was used in which effects of different treatments upon circulating lipids were determined.
(§2) Seventy-five day old female Sprague Dawley rats (weight range of 200 to 225 g) were obtained from Charles River Laboratories (Portage, Mich.). The animals were either bilaterally ovariectomized (OVX) or exposed to a Sham surgical procedure at Charles River Laboratories, and then shipped after one week. Upon arrival, they were housed in metal hanging cages in groups of 3 or 4 per cage and had ad libitum access to food (calcium content approximately 0.5%) and water for one week. Room temperature was maintained at 22.2°±1.70° C. with a minimum relative humidity of 40%. The photoperiod in the room was 12 hours light and 12 hours dark.
(§3) After a one week acclimation period (therefore, two weeks post-OVX) daily dosing with test compound was initiated. […] Animals were dosed daily for 4 days. Following the dosing regimen, animals were weighed and anesthetized with a ketamine: Xylazine (2:1, V:V) mixture and a blood sample was collected by cardiac puncture. The animals were then sacrificed by asphyxiation with CO2, the uterus was removed through a midline incision, and a wet uterine weight was determined.
This uterine response to estrogen is well recognized in the art.
(§4) The data presented in Table 1 below reflects the response of 5 to 6 rats per treatment.

[2] = system: Uterine Eosinophil Peroxidase (EPO); assay: Uterine Eosinophil Peroxidase (EPO) Assay in ovariectomized rats; assay type: in vivo, rat (female Sprague Dawley); parameters: Uterine EPO (Vmax): unit not given here
From the text: as §2, §3
Uteri were kept at 4° C. until time of enzymatic analysis. The uteri were then homogenized in 50 volumes of 50 mM Tris buffer (pH-8.0) containing 0.005% Triton X-100. Upon addition of 0.01% hydrogen peroxide and 10 mM O-phenylenediamine (final concentrations) in Tris buffer, increase in absorbance was monitored for one minute at 450 nm. The presence of eosonophils in the uterus is an indication of estrogenic activity of a compound. The maximal velocity of a 15 second interval was determined over the initial, linear portion of the reaction curve.
As is expressed in the data below, estrogenicity also was assessed by evaluating the adverse response of eosinophil infiltration into the uterus.
as §4

[3] = system: serum cholesterol, ovariectomized rats; assay: Serum cholesterol in ovariectomized rats (4 days daily oral dosing); assay type: in vivo, rat (female Sprague Dawley); conditions: Rattus norvegicus, 96 h, read-out: Serum Cholesterol (% decrease vs. OVX); for inhibition in vivo at 0.1 mg/kg: 0.1 mg/kg PO; for inhibition in vivo at 1 mg/kg: 1.0 mg/kg PO; for inhibition in vivo at 10 mg/kg: 10.0 mg/kg PO
Method: as §1, §2, §3
Blood samples were allowed to clot at room temperature for 2 hours, and serum was obtained following centrifugation for 10 minutes at 3000 rpm. Serum cholesterol was determined using a Boehringer Mannheim Diagnostics high performance cholesterol assay. Briefly the cholesterol was oxidized to cholest-4-en-3-one and hydrogen peroxide. The hydrogen peroxide was then reacted with phenol and 4-aminophenazone in the presence of peroxidase to produce a p-quinone imine dye, which was read spectrophotemetrically at 500 nm. Cholesterol concentration was then calculated against a standard curve. The entire assay was automated using a Biomek Automated Workstation. […]
as §4

[4] = system: MCF-7 breast adenocarcinoma cells; assay: MCF-7 Proliferation Assay (tritiated thymidine); assay type: cell-based
Method: MCF-7 breast adenocarcinoma cells (ATCC HTB 22) were maintained in MEM (minimal essential medium, phenol red-free, Sigma, St. Louis, Mo.) supplimented with 10% fetal bovine serum (FBS) (V/V), L-glutamine (2 mM), sodium pyruvate (1 mM), HEPES {(N-[2-hydroxyethyl]piperazine-N'-[2-ethanesulfonic acid]10 mM}, non-essential amino acids and bovine insulin (1 ug/mL) (maintenance medium). Ten days prior to assay, MCF-7 cells were switched to maintenance medium supplemented with 10% dextran coated charcoal stripped fetal bovine serum (DCC-FBS) assay medium) in place of 10% FBS to deplete internal stores of steroids. MCF-7 cells were removed from maintenance flasks using cell dissociation medium (Ca++/Mg++ free HBSS (phenol red-free) supplemented with 10 mM HEPES and 2 mM EDTA). Cells were washed twice with assay medium and adjusted to 80,000 cells/mL. Approximately […] (8,000 cells) were added to flat-bottom microculture wells (Costar 3596) and incubated at 37° C. in a 5% CO2 humidified incubator for 48 hours to allow for cell adherence and equilibration after transfer. Serial dilutions of drugs or DMSO as a diluent control were prepared in assay medium and […] to triplicate microcultures followed by […] assay medium for a final volume of […]. After an additional 48 hours at 37° C. in a 5% CO2 humidified incubator, microcultures were pulsed with tritiated thymidine (1 uCi/well) for 4 hours. Cultures were terminated by freezing at -70° C. for 24 hours followed by thawing and harvesting of microcultures using a Skatron Semiautomatic Cell Harvester. Samples were counted by liquid scintillation using a Wallac BetaPlace b counter. Results in Table 4 below show the IC50 for certain compounds of the instant invention. […]

[5] = Homo sapiens, MCF7, 48 hours, read-out: IC50

- IC50 [4, 5]: 2.5 nM
Compound: O=C(c1ccc(OCCN2CCCCC2)cc1)c1c(-c2cccc(F)c2)sc2cc(O)ccc12 [Example 22, [2-(3-Fluorophenyl)-6-hydroxybenzothien-3-yl] [4-[2-(1-piperidinyl)ethoxy]phenyl]methanone]
- change in vivo at 0.1 mg/kg [1]: 53.2%
- change in vivo at 1 mg/kg [1]: 62.8%
- change in vivo at 10 mg/kg [1]: 26.9%
- Uterine EPO (Vmax) ([2]; 0.1 mg/kg PO): 4.8
- Uterine EPO (Vmax) ([2]; 1.0 mg/kg PO): 7.8
- Uterine EPO (Vmax) ([2]; 10.0 mg/kg PO): 12.0
- inhibition in vivo at 0.1 mg/kg [3]: 18.6%
- inhibition in vivo at 1 mg/kg [3]: 62%
- inhibition in vivo at 10 mg/kg [3]: 67.3%

- IC50 [4, 5]: 2.3 nM
Compound: O=C(c1ccc(OCCN2CCCCC2)cc1)c1c(-c2ccc(O)c(Cl)c2)sc2cc(O)ccc12 [Example 5, [2-(3-Chloro-4-hydroxyphenyl)-6-hydroxybenzo[b]thien-3-yl][4-[2-(1-piperidinyl)ethoxy]phenyl]methanone]
- change in vivo at 0.1 mg/kg [1]: -22.6%
- change in vivo at 1 mg/kg [1]: 20.7%
- change in vivo at 10 mg/kg [1]: 30.2%
- Uterine EPO (Vmax) ([2]; 0.1 mg/kg PO): 1.2
- Uterine EPO (Vmax) ([2]; 1.0 mg/kg PO): 2.4
- Uterine EPO (Vmax) ([2]; 10.0 mg/kg PO): 1.3
- inhibition in vivo at 0.1 mg/kg [3]: 18.6%
- inhibition in vivo at 1 mg/kg [3]: 52.6%
- inhibition in vivo at 10 mg/kg [3]: 71.5%

- IC50 [4, 5]: 1000 nM
Compound: O=C(c1ccc(OCCN2CCCCC2)cc1)c1c(-c2ccc(C(F)(F)F)cc2)sc2cc(O)ccc12 [Example 20, [2-(4-Trifluoromethylphenyl)-6-hydroxybenzo[b]thien-3-yl][4-[2-(1-piperidinyl)ethoxy]phenyl]methanone]
- change in vivo at 0.1 mg/kg [1]: -2%
- change in vivo at 1 mg/kg [1]: 7%
- change in vivo at 5 mg/kg ([1]; 5.0 mg/kg PO): 37.4%
- Uterine EPO (Vmax) ([2]; 0.1 mg/kg PO): 1.8
- Uterine EPO (Vmax) ([2]; 1.0 mg/kg PO): 7
- Uterine EPO (Vmax) ([2]; 5.0 mg/kg PO): 16.4
- inhibition in vivo at 0.1 mg/kg [3]: 45.5%
- inhibition in vivo at 1 mg/kg [3]: 47.9%
- inhibition in vivo at 5 mg/kg ([3]; 5.0 mg/kg PO): 71.5%

- IC50 [4, 5]: 500 nM
Compound: COc1ccc2c(C(=O)c3ccc(OCCN4CCCCC4)cc3)c(-c3cccc(F)c3)sc2c1 [Example 21, [2-(3-Fluorophenyl)-6-methoxybenzo[b]thien-3-yl] [4-[2-(1-piperidinyl)ethoxy]phenyl]methanone]
- change in vivo at 0.1 mg/kg [1]: 14.9%
- change in vivo at 1 mg/kg [1]: 4.1%
- change in vivo at 10 mg/kg [1]: 25.3%
- Uterine EPO (Vmax) ([2]; 0.1 mg/kg PO): 4.5
- Uterine EPO (Vmax) ([2]; 1.0 mg/kg PO): 4.8
- Uterine EPO (Vmax) ([2]; 10.0 mg/kg PO): 7.5
- inhibition in vivo at 0.1 mg/kg [3]: 1.4%
- inhibition in vivo at 1 mg/kg [3]: -12%
- inhibition in vivo at 10 mg/kg [3]: 60.5%

The remaining lines, values behind:

Compound: Cc1cc(O)ccc1-c1sc2cc(O)ccc2c1C(=O)c1ccc(OCCN2CCCCC2)cc1 [Example 16, [2-(2-Methyl-4-hydroxyphenyl)-6-hydroxybenzo[b]thien-3-yl][4-[2-(1-piperidinyl)ethoxy]phenyl]methanone]
- change in vivo at 0.1 mg/kg [1]: 54.5%
- change in vivo at 1 mg/kg [1]: 53.7%
- change in vivo at 10 mg/kg [1]: 62.7%
- Uterine EPO (Vmax) ([2]; 0.1 mg/kg PO): 8.1
- Uterine EPO (Vmax) ([2]; 1.0 mg/kg PO): 8.4
- Uterine EPO (Vmax) ([2]; 10.0 mg/kg PO): 8.1
- inhibition in vivo at 0.1 mg/kg [3]: 39.2%
- inhibition in vivo at 1 mg/kg [3]: 62.6%
- inhibition in vivo at 10 mg/kg [3]: 68.5%
- IC50 [4, 5]: 2 nM

Compound: Cc1cc(-c2sc3cc(O)ccc3c2C(=O)c2ccc(OCCN3CCCCC3)cc2)ccc1O [Example 7, [2-(3-Methyl-4-hydroxyphenyl)-6-hydroxybenzo[b]thien-3-yl][4-[2-(1-piperidinyl)ethoxy]phenyl]methanone]
- change in vivo at 0.1 mg/kg [1]: 7.6%
- change in vivo at 1 mg/kg [1]: 15.6%
- change in vivo at 10 mg/kg [1]: 24.6%
- Uterine EPO (Vmax) ([2]; 0.1 mg/kg PO): 4.9
- Uterine EPO (Vmax) ([2]; 1.0 mg/kg PO): 2.5
- Uterine EPO (Vmax) ([2]; 10.0 mg/kg PO): 2.8
- inhibition in vivo at 0.1 mg/kg [3]: 53.7%
- inhibition in vivo at 1 mg/kg [3]: 77.6%
- inhibition in vivo at 10 mg/kg [3]: 49.7%
- IC50 [4, 5]: 1 nM

Compound: C[C@]12CC[C@@H]3c4ccc(O)cc4CC[C@H]3[C@@H]1CC[C@@H]2O [estradiol, reference compound]
- eosinophil infiltration into the uterus (in words) ([2]; stromal layer of ovariectomized rats): substantial, expected increase in eosinophil infiltration

Compound: COc1ccc2c(C(=O)c3ccc(OCCN4CCCCC4)cc3)c(-c3ccc(C(F)(F)F)cc3)sc2c1 [Example 19, [2-(4-Trifluoromethylphenyl)-6-methoxybenzo[b]thien-3-yl][4-[2-(1-piperidinyl)ethoxy]phenyl]methanone]
- change in vivo at 0.1 mg/kg [1]: 10.3%
- change in vivo at 1 mg/kg [1]: 15.6%
- change in vivo at 10 mg/kg [1]: 16.6%
- Uterine EPO (Vmax) ([2]; 0.1 mg/kg PO): 6.8
- Uterine EPO (Vmax) ([2]; 1.0 mg/kg PO): 4.3
- Uterine EPO (Vmax) ([2]; 10.0 mg/kg PO): 4
- inhibition in vivo at 0.1 mg/kg [3]: 22.3%
- inhibition in vivo at 1 mg/kg [3]: 3.1%
- inhibition in vivo at 10 mg/kg [3]: 20.6%
- IC50 ([4]; 48 hours): Not active

Compound: Cc1ccccc1-c1sc2cc(O)ccc2c1C(=O)c1ccc(OCCN2CCCCC2)cc1 [Example 23, [2-(2-Methylphenyl)-6-hydroxybenzo[b]thien-3-yl] [4-[2-(1-piperidinyl)ethoxy]phenyl]methanone]
- change in vivo at 0.1 mg/kg [1]: 8.5%
- change in vivo at 1 mg/kg [1]: 12%
- change in vivo at 10 mg/kg [1]: 10.9%
- Uterine EPO (Vmax) ([2]; 0.1 mg/kg PO): 12.0
- Uterine EPO (Vmax) ([2]; 1.0 mg/kg PO): 8.4
- Uterine EPO (Vmax) ([2]; 10.0 mg/kg PO): 8.1
- inhibition in vivo at 0.1 mg/kg [3]: 31.7%
- inhibition in vivo at 1 mg/kg [3]: 38.6%
- inhibition in vivo at 10 mg/kg [3]: 29.3%
- IC50 [4, 5]: 0.7 nM

Compound: COc1ccc2c(C(=O)c3ccc(OCCN4CCCCC4)cc3)c(-c3ccc(OC)c(OC)c3)sc2c1 [Example 8, [2-(3,4-Dimethoxyphenyl)-6-methoxybenzo[b]thien-3-yl][4-[2-(1-piperidinyl)ethoxy]phenyl]methanone]
- change in vivo at 0.1 mg/kg [1]: -8.3%
- change in vivo at 1 mg/kg [1]: 23.4%
- change in vivo at 10 mg/kg [1]: 24.1%
- Uterine EPO (Vmax) ([2]; 0.1 mg/kg PO): 1.3
- Uterine EPO (Vmax) ([2]; 1.0 mg/kg PO): 4.4
- Uterine EPO (Vmax) ([2]; 10.0 mg/kg PO): 11.2
- inhibition in vivo at 0.1 mg/kg [3]: 24.8%
- inhibition in vivo at 1 mg/kg [3]: 57.8%
- inhibition in vivo at 10 mg/kg [3]: 60.8%

Compound: O=C(Oc1cccc(-c2sc3cc(OC(=O)c4ccccc4)ccc3c2C(=O)c2ccc(OCCN3CCCCC3)cc2)c1)c1ccccc1 [Example 13, [2-(3-Benzoyloxyphenyl)-6-benzoyloxybenzo[b]thien-3-yl][4-[2-(1-piperidinyl)ethoxy]phenyl]methanone]
- change in vivo at 0.1 mg/kg [1]: -18.6%
- change in vivo at 1 mg/kg [1]: 34.7%
- change in vivo at 10 mg/kg [1]: 27.6%
- Uterine EPO (Vmax) ([2]; 0.1 mg/kg PO): 3.0
- Uterine EPO (Vmax) ([2]; 1.0 mg/kg PO): 6.0
- Uterine EPO (Vmax) ([2]; 10.0 mg/kg PO): 8.4
- inhibition in vivo at 0.1 mg/kg [3]: 25.3%
- inhibition in vivo at 1 mg/kg [3]: 45.7%
- inhibition in vivo at 10 mg/kg [3]: 61.4%

From patent US5998442A, “Benzo [B] thiophene compounds, and compositions for treating bone loss, and hyperlipidemia” (Eli Lilly and Company, priority 1997, dated 1999)
